Among the data in ChEMBL document CHEMBL3046407, “Toxicity of monoterpenes against larvae and adults of Colorado potato beetle, Leptinotarsa decemlineata Say (Coleoptera: Chrysomelidae)” (2007) are mortality values, retold here.

What all share (assay type): functional
Experiment [1] relates to Leptinotarsa decemlineata. The experiment in a line: Insecticidal activity against first-instar larval stage of Leptinotarsa decemlineata infested potato leaves assessed as mortality at 20 ul after 24 hr relative to control.
For experiment [2], the system named is Leptinotarsa decemlineata. The experiment in a line: Insecticidal activity against adult Leptinotarsa decemlineata infested potato leaves assessed as mortality at 10 ul after 12 hr relative to control.
Experiment [3] deals with Leptinotarsa decemlineata. Put plainly: Insecticidal activity against second-instar larval stage of Leptinotarsa decemlineata infested potato leaves assessed as mortality at 20 ul after 24 hr (reference value: 3.3 +/- 3.3%).
In experiment [4] the test system is Leptinotarsa decemlineata. Put plainly: Insecticidal activity against first-instar larval stage of Leptinotarsa decemlineata infested potato leaves assessed as mortality at 20 ul after 96 hr relative to control.
Experiment [5] deals with Leptinotarsa decemlineata. Put plainly: Insecticidal activity against adult Leptinotarsa decemlineata infested potato leaves assessed as mortality at 20 ul after 48 hr relative to control.
The subject of experiment [6] is Leptinotarsa decemlineata. The experiment in a line: Insecticidal activity against adult Leptinotarsa decemlineata infested potato leaves assessed as mortality at 10 ul after 24 hr relative to control.
Experiment [7] concerns Leptinotarsa decemlineata. The experiment in a line: Insecticidal activity against second-instar larval stage of Leptinotarsa decemlineata infested potato leaves assessed as mortality at 10 ul after 24 hr (reference value: 3.3 +/- 3.3%).
Experiment [8] has as its system Leptinotarsa decemlineata. Put plainly: Insecticidal activity against first-instar larval stage of Leptinotarsa decemlineata infested potato leaves assessed as mortality at 10 ul after 12 hr relative to control.
The test system of experiment [9] is Leptinotarsa decemlineata. The experiment in a line: Insecticidal activity against adult Leptinotarsa decemlineata infested potato leaves assessed as mortality at 10 ul after 48 hr relative to control.
Experiment [10] relates to Leptinotarsa decemlineata. The experiment in a line: Insecticidal activity against first-instar larval stage of Leptinotarsa decemlineata infested potato leaves assessed as mortality at 20 ul after 12 hr relative to control.
The test system of another experiment is Sitophilus granarius. The experiment in a line: Insecticidal activity against Sitophilus granarius (granary weevil) assessed as mortality.
The test system of experiment [11] is Leptinotarsa decemlineata. The experiment in a line: Insecticidal activity against third-instar larval stage of Leptinotarsa decemlineata infested potato leaves assessed as mortality at 20 ul after 96 hr (reference value: 3.3 +/- 3.3%).
The subject of experiment [12] is Leptinotarsa decemlineata. The experiment in a line: Insecticidal activity against third-instar larval stage of Leptinotarsa decemlineata infested potato leaves assessed as mortality at 10 ul after 12 hr relative to control.
Experiment [13] has as its system Leptinotarsa decemlineata. Put plainly: Insecticidal activity against third-instar larval stage of Leptinotarsa decemlineata infested potato leaves assessed as mortality at 10 ul after 24 hr relative to control.
For experiment [14], the system named is Leptinotarsa decemlineata. Put plainly: Insecticidal activity against first-instar larval stage of Leptinotarsa decemlineata infested potato leaves assessed as mortality at 10 ul after 48 hr relative to control.
In experiment [15] the test system is Leptinotarsa decemlineata. The experiment in a line: Insecticidal activity against second-instar larval stage of Leptinotarsa decemlineata infested potato leaves assessed as mortality at 20 ul after 12 hr relative to control.
The test system of experiment [16] is Leptinotarsa decemlineata. The experiment in a line: Insecticidal activity against second-instar larval stage of Leptinotarsa decemlineata infested potato leaves assessed as mortality at 20 ul after 48 hr (reference value: 3.3 +/- 3.3%).
The test system of experiment [17] is Leptinotarsa decemlineata. Put plainly: Insecticidal activity against adult Leptinotarsa decemlineata infested potato leaves assessed as mortality at 20 ul after 12 hr relative to control.
Experiment [18] deals with Leptinotarsa decemlineata. Put plainly: Insecticidal activity against second-instar larval stage of Leptinotarsa decemlineata infested potato leaves assessed as mortality at 10 ul after 48 hr (reference value: 3.3 +/- 3.3%).
In experiment [19] the test system is Leptinotarsa decemlineata. The experiment in a line: Insecticidal activity against first-instar larval stage of Leptinotarsa decemlineata infested potato leaves assessed as mortality at 10 ul after 96 hr relative to control.
In experiment [20] the test system is Leptinotarsa decemlineata. Put plainly: Insecticidal activity against third-instar larval stage of Leptinotarsa decemlineata infested potato leaves assessed as mortality at 10 ul after 96 hr (reference value: 3.3 +/- 3.3%).
For experiment [21], the system named is Leptinotarsa decemlineata. The experiment in a line: Insecticidal activity against second-instar larval stage of Leptinotarsa decemlineata infested potato leaves assessed as mortality at 10 ul after 12 hr relative to control.
For experiment [22], the system named is Leptinotarsa decemlineata. Put plainly: Insecticidal activity against first-instar larval stage of Leptinotarsa decemlineata infested potato leaves assessed as mortality at 10 ul after 24 hr relative to control.
Experiment [23] concerns Leptinotarsa decemlineata. Put plainly: Insecticidal activity against adult Leptinotarsa decemlineata infested potato leaves assessed as mortality at 10 ul after 96 hr relative to control.
Experiment [24] concerns Leptinotarsa decemlineata. Put plainly: Insecticidal activity against adult Leptinotarsa decemlineata infested potato leaves assessed as mortality at 20 ul after 96 hr relative to control.
Experiment [25] concerns Leptinotarsa decemlineata. Put plainly: Insecticidal activity against second-instar larval stage of Leptinotarsa decemlineata infested potato leaves assessed as mortality at 10 ul after 96 hr (reference value: 3.3 +/- 3.3%).
Experiment [26] deals with Leptinotarsa decemlineata. Put plainly: Insecticidal activity against third-instar larval stage of Leptinotarsa decemlineata infested potato leaves assessed as mortality at 20 ul after 48 hr (reference value: 3.3 +/- 3.3%).
Experiment [27] concerns Leptinotarsa decemlineata. The experiment in a line: Insecticidal activity against third-instar larval stage of Leptinotarsa decemlineata infested potato leaves assessed as mortality at 20 ul after 24 hr relative to control.
In experiment [28] the test system is Leptinotarsa decemlineata. Put plainly: Insecticidal activity against second-instar larval stage of Leptinotarsa decemlineata infested potato leaves assessed as mortality at 20 ul after 96 hr (reference value: 3.3 +/- 3.3%).
Experiment [29] has as its system Leptinotarsa decemlineata. Put plainly: Insecticidal activity against third-instar larval stage of Leptinotarsa decemlineata infested potato leaves assessed as mortality at 10 ul after 48 hr (reference value: 3.3 +/- 3.3%).
For experiment [30], the system named is Leptinotarsa decemlineata. Put plainly: Insecticidal activity against first-instar larval stage of Leptinotarsa decemlineata infested potato leaves assessed as mortality at 20 ul after 48 hr relative to control.
For experiment [31], the system named is Leptinotarsa decemlineata. Put plainly: Insecticidal activity against third-instar larval stage of Leptinotarsa decemlineata infested potato leaves assessed as mortality at 20 ul after 12 hr relative to control.
Experiment [32] relates to Leptinotarsa decemlineata. The experiment in a line: Insecticidal activity against adult Leptinotarsa decemlineata infested potato leaves assessed as mortality at 20 ul after 24 hr relative to control.

Broadly, the mortality is the share of the test organisms that died. `CC(C)[C@H]1CC[C@H](C)CC1=O` (relative stereo) [REL-MENTHONE]: the mortality amounted to 53.3% in experiment [1]; 70% in [2]; 53.3% in experiment [3]; 66.7% in experiment [4]; 100% in [5]; 93.3% in experiment [6]. Further, the mortality in [7] was found to be 33.3%; in [8] it was 6.7%; in experiment [9], 100%; in experiment [10], 26.7%; in the experiment on Sitophilus granarius, 90%; in [11] it was 50%. For the same compound, the mortality in [12] is reported as 30%; in experiment [13], 50%; in experiment [14], 40%; in [15], 26.7%; in [16], 56.7%; in [17], 83.3%. The mortality in experiment [18] is 33.3%; in experiment [19], 50%; in experiment [20] it was 56.7%; in experiment [21], 13.3%; in [22] it was 23.3%; in experiment [23] it was 100%. Moreover, the mortality in experiment [24] is recorded as 100%; in experiment [25] it was 36.7%; in [26], 43.3%; in experiment [27] it was 30%; in experiment [28], 56.7%; in experiment [29], 53.3%. For the same compound, the mortality in experiment [30] was 56.7%; in experiment [31], 23.3%; in experiment [32], 100%.
Regarding `CC(C)=C1CC[C@@H](C)CC1=O` [PULEGONE], the mortality in the experiment with Sitophilus granarius came out at 90%.
